Assay results from US20230295197A1, “STAT5 and STAT6 Degraders and Uses Thereof” (REGENTS OF THE UNIVERSITY OF MICHICAN, priority 2022, published 2023).
Where two headings read alike, the source gives them in different places.

Biological target: T1, STAT6 (Homo sapiens, UniProt P42226)
T1 construct: endogenous in cells; host or cells: MOLM-16, KU-812, SKNO1, MB231, L1236
T1 sequence (P42226 1-847): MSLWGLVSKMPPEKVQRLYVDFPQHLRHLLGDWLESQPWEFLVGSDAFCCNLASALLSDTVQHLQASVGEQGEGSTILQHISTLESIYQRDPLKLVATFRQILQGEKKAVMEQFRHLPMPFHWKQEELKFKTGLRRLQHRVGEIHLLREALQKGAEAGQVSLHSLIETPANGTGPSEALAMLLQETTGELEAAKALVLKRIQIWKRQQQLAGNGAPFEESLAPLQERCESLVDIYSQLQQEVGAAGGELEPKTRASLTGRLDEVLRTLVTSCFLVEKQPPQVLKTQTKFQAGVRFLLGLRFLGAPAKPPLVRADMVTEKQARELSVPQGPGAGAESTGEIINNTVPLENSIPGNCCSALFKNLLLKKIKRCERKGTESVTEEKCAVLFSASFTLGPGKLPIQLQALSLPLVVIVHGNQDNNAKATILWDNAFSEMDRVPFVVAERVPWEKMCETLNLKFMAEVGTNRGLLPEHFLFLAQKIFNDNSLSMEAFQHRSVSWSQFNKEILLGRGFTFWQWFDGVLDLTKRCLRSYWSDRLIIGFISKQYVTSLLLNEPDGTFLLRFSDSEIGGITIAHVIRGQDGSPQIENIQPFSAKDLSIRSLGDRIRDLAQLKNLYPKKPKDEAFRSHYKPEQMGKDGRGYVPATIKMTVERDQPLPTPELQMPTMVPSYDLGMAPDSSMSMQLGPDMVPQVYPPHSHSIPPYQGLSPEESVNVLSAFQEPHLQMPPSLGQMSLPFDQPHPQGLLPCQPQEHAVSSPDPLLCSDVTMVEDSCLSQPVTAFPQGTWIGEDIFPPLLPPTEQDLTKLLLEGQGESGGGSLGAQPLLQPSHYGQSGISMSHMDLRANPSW
Experiment: Immunoblotting (Western blot) analysis of STAT6 degradation efficiency of degraders in treated cells
Type: cell-based
How it was run: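 Treatment of cells with degraders at stated concentrations and exposure times comes first. Lysates are then equalised for total protein by BCA, and the proteins are separated, transferred and immunostained for STAT6 or STAT5 alongside GAPDH. Signal is quantified from infrared fluorescence.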

[1] = L1236 cells, read-out: DC50 S6 L1236
[2] = MOLM-16 cells, class symbols, read-out: DC50 S6 MOLM-16

SMILES	DC50 [2]	DC50 [1]
CC(C)(C)[C@H](NC(=O)c1cc2cc(C(F)(F)P(=O)(O)O)ccc2s1)C(=O)N1C[C@@H](OCC(=O)NCCC#Cc2ccc3c(c2)C(=O)N(C2CCC(=O)NC2=O)C3=O)C[C@H]1C(=O)N1CCO[C@H](c2ccccc2)C1 (stereo partly drawn) [Compound 482, ((2-(((2S)-1-((2S,4S)-4-(2-((4-(2-(2,6-dioxopiperidin-3-yl)-1,3-dioxoisoindolin-5-yl)but-3-yn-1-yl)amino)-2-oxoethoxy)-2-((R)-2-phenylmorpholine-4-carbonyl)pyrrolidin-1-yl)-3,3-dimethyl-1-oxobutan-2-yl)carbamoyl)benzo[b]thiophen-5-yl)difluoromethyl)phosphonic acid]	> 10 µM	
Cc1ncsc1-c1ccc([C@H](C)NC(=O)[C@@H]2C[C@@H](O)CN2C(=O)[C@@H](NC(=O)CCCCCCCCCNC(=O)CO[C@H]2C[C@@H](C(=O)N3CCO[C@H](c4ccccc4)C3)N(C(=O)[C@@H](NC(=O)c3cc4cc(C(F)(F)P(=O)(O)O)ccc4s3)C(C)(C)C)C2)C(C)(C)C)cc1 [Compound 433, (difluoro(2-(((S)-1-((2S,4S)-4-(2-((10-(((S)-1-((2S,4R)-4-hydroxy-2-(((S)-1-(4-(4-methylthiazol-5-yl)phenyl)ethyl)carbamoyl)pyrrolidin-1-yl)-3,3-dimethyl-1-oxobutan-2-yl)amino)-10-oxodecyl)amino)-2-oxoethoxy)-2-((R)-2-phenylmorpholine-4-carbonyl)pyrrolidin-1-yl)-3,3-dimethyl-1-oxobutan-2-yl)carbamoyl)benzo[b]thiophen-5-yl)methyl)phosphonic acid]	> 10 µM	> 10 µM
Cc1ncsc1-c1ccc([C@H](C)NC(=O)[C@@H]2C[C@@H](O)CN2C(=O)[C@@H](NC(=O)CCCNC(=O)COc2ccc3c(c2)CN(C(=O)[C@@H](NC(=O)c2cc4cc(C(F)(F)P(=O)(O)O)ccc4s2)C(C)(C)C)[C@H](C(=O)N2CCC[C@H](c4ccccc4)C2)C3)C(C)(C)C)cc1 [Compound 472, (difluoro(2-(((S)-1-((S)-7-(2-((4-(((S)-1-((2S,4R)-4-hydroxy-2-(((S)-1-(4-(4-methylthiazol-5-yl)phenyl)ethyl)carbamoyl)pyrrolidin-1-yl)-3,3-dimethyl-1-oxobutan-2-yl)amino)-4-oxobutyl)amino)-2-oxoethoxy)-3-((R)-3-phenylpiperidine-1-carbonyl)-3,4-dihydroisoquinolin-2(1H)-yl)-3,3-dimethyl-1-oxobutan-2-yl)carbamoyl)benzo[b]thiophen-5-yl)methyl)phosphonic acid]	> 10 µM	
CC(C)(C)[C@H](NC(=O)c1cc2cc(C(F)(F)P(=O)(O)O)ccc2s1)C(=O)N1CCN(C(=O)CC(=O)NCCCC#Cc2cccc3c2C(=O)N(C2CCC(=O)NC2=O)C3=O)C[C@H]1C(=O)N1CCC[C@H](c2ccccc2)C1 (stereo partly drawn) [Compound 525, ((2-(((2S)-1-((2S)-4-(3-((5-(2-(2,6-dioxopiperidin-3-yl)-1,3-dioxoisoindolin-4-yl)pent-4-yn-1-yl)amino)-3-oxopropanoyl)-2-((R)-3-phenylpiperidine-1-carbonyl)piperazin-1-yl)-3,3-dimethyl-1-oxobutan-2-yl)carbamoyl)benzo[b]thiophen-5-yl)difluoromethyl)phosphonic acid]	> 10 µM	
Cc1ncsc1-c1ccc([C@H](C)NC(=O)[C@@H]2C[C@@H](O)CN2C(=O)[C@@H](NC(=O)CCCCCCCNC(=O)CC(=O)N2CCN(C(=O)[C@@H](NC(=O)c3cc4cc(C(F)(F)P(=O)(O)O)ccc4s3)C(C)(C)C)[C@H](C(=O)N3CCC[C@H](c4ccccc4)C3)C2)C(C)(C)C)cc1 [Compound 458, (difluoro(2-(((S)-1-((S)-4-(3-((8-(((S)-1-((2S,4R)-4-hydroxy-2-(((S)-1-(4-(4-methylthiazol-5-yl)phenyl)ethyl)carbamoyl)pyrrolidin-1-yl)-3,3-dimethyl-1-oxobutan-2-yl)amino)-8-oxooctyl)amino)-3-oxopropanoyl)-2-((R)-3-phenylpiperidine-1-carbonyl)piperazin-1-yl)-3,3-dimethyl-1-oxobutan-2-yl)carbamoyl)benzo[b]thiophen-5-yl)methyl)phosphonic acid]	> 10 µM	> 10 µM
Cc1ncsc1-c1ccc([C@H](C)NC(=O)[C@@H]2C[C@@H](O)CN2C(=O)[C@@H](NC(=O)CCNC(=O)COc2ccc3c(c2)CN(C(=O)[C@@H](NC(=O)c2cc4cc(C(F)(F)P(=O)(O)O)ccc4s2)C(C)(C)C)[C@H](C(=O)N2CCC[C@H](c4ccccc4)C2)C3)C(C)(C)C)cc1 [Compound 471, (difluoro(2-(((S)-1-((S)-7-(2-((3-(((S)-1-((2S,4R)-4-hydroxy-2-(((S)-1-(4-(4-methylthiazol-5-yl)phenyl)ethyl)carbamoyl)pyrrolidin-1-yl)-3,3-dimethyl-1-oxobutan-2-yl)amino)-3-oxopropyl)amino)-2-oxoethoxy)-3-((R)-3-phenylpiperidine-1-carbonyl)-3,4-dihydroisoquinolin-2(1H)-yl)-3,3-dimethyl-1-oxobutan-2-yl)carbamoyl)benzo[b]thiophen-5-yl)methyl)phosphonic acid]	> 10 µM	

Now from value to compound, other results behind:

DC50 [2]	SMILES	DC50 [1]
> 10 µM	CC(C)(C)[C@H](NC(=O)c1cc2cc(C(F)(F)P(=O)(O)O)ccc2s1)C(=O)N1C[C@@H](NC(=O)CCCCCC#Cc2ccc3c(c2)CN(C2CCC(=O)NC2=O)C3=O)C[C@H]1C(=O)N1CCO[C@H](c2ccccc2)C1 (stereo partly drawn) [Compound 566, ((2-(((2S)-1-((2S,4S)-4-(8-(2-(2,6-dioxopiperidin-3-yl)-1-oxoisoindolin-5-yl)oct-7-ynamido)-2-((R)-2-phenylmorpholine-4-carbonyl)pyrrolidin-1-yl)-3,3-dimethyl-1-oxobutan-2-yl)carbamoyl)benzo[b]thiophen-5-yl)difluoromethyl)phosphonic acid]	> 10 µM
> 10 µM	CC(C)(C)[C@H](NC(=O)c1cc2cc(C(F)(F)P(=O)(O)O)ccc2s1)C(=O)N1Cc2cc(OCC(=O)NCCCCCC#Cc3ccc4c(c3)C(=O)N(C3CCC(=O)NC3=O)C4=O)ccc2C[C@H]1C(=O)N1CCO[C@H](c2ccccc2)C1 (stereo partly drawn) [Compound 544, ((2-(((2S)-1-((3S)-7-(2-((7-(2-(2,6-dioxopiperidin-3-yl)-1,3-dioxoisoindolin-5-yl)hept-6-yn-1-yl)amino)-2-oxoethoxy)-3-((R)-2-phenylmorpholine-4-carbonyl)-3,4-dihydroisoquinolin-2(1H)-yl)-3,3-dimethyl-1-oxobutan-2-yl)carbamoyl)benzo[b]thiophen-5-yl)difluoromethyl)phosphonic acid]	
< 0.1 µM	CC(C)(C)[C@H](NC(=O)c1cc2cc(C(F)(F)P(=O)(O)O)ccc2s1)C(=O)N1C[C@@H](OCCCCCCC#Cc2cccc3c2CN(C2CCC(=O)NC2=O)C3=O)C[C@H]1C(=O)N1CCO[C@H](c2ccccc2)C1 (stereo partly drawn) [Compound 587, ((2-(((2S)-1-((2S,4S)-4-((8-(2-(2,6-dioxopiperidin-3-yl)-1-oxoisoindolin-4-yl)oct-7-yn-1-yl)oxy)-2-((R)-2-phenylmorpholine-4-carbonyl)pyrrolidin-1-yl)-3,3-dimethyl-1-oxobutan-2-yl)carbamoyl)benzo[b]thiophen-5-yl)difluoromethyl)phosphonic acid]	0.1 to 1 µM
> 10 µM	CC(C)(C)[C@H](NC(=O)c1cc2cc(C(F)(F)P(=O)(O)O)ccc2s1)C(=O)N1Cc2cc(OCC(=O)NCCCCCCCCCC#Cc3ccc4c(c3)C(=O)N(C3CCC(=O)NC3=O)C4=O)ccc2C[C@H]1C(=O)N1CCO[C@H](c2ccccc2)C1 (stereo partly drawn) [Compound 548, ((2-(((2S)-1-((3S)-7-(2-((11-(2-(2,6-dioxopiperidin-3-yl)-1,3-dioxoisoindolin-5-yl)undec-10-yn-1-yl)amino)-2-oxoethoxy)-3-((R)-2-phenylmorpholine-4-carbonyl)-3,4-dihydroisoquinolin-2(1H)-yl)-3,3-dimethyl-1-oxobutan-2-yl)carbamoyl)benzo[b]thiophen-5-yl)difluoromethyl)phosphonic acid]	
> 10 µM	CC(C)(C)[C@H](NC(=O)c1cc2cc(C(F)(F)P(=O)(O)O)ccc2s1)C(=O)N1C[C@@H](OCC(=O)NCCCC#Cc2cccc3c2C(=O)N(C2CCC(=O)NC2=O)C3=O)C[C@H]1C(=O)N1CCC[C@H](c2ccccc2)C1 (stereo partly drawn) [Compound 497, ((2-(((2S)-1-((2S,4S)-4-(2-((5-(2-(2,6-dioxopiperidin-3-yl)-1,3-dioxoisoindolin-4-yl)pent-4-yn-1-yl)amino)-2-oxoethoxy)-2-((R)-3-phenylpiperidine-1-carbonyl)pyrrolidin-1-yl)-3,3-dimethyl-1-oxobutan-2-yl)carbamoyl)benzo[b]thiophen-5-yl)difluoromethyl)phosphonic acid]	
